Where two headings read alike, the source gives them in different places.
What was measured:
[1] = molecular target: T1, Cyclin Dependent Kinase 1/Cyclin A2 (CDK1-cycA2) (Homo sapiens, UniProt P06493); test: CDK1-cycA2 TR-FRET (Lance) enzyme assay; assay type: biochemical; conditions: for Ki: Table O, enzymatic assay; for FS CDK1/CDK2: fold selectivity, enzymatic Ki ratio
T1 construct: purchased ProQinase 0134-0054-1
Summary of the method: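 TR-FRET (Lance) detection of phospho-4E-BP1 with a europium-labelled antibody after EDTA quench (15 mM final); signal taken as acceptor/donor ratio. Enzyme and compound were pre-incubated 30 min in HEPES pH 7.5 buffer with MgCl2, TCEP, BGG and Brij 35. Ki derived by Morrison fit.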

[2] = molecular target: T2, Cyclin Dependent Kinase 2/Cyclin E1 (CDK2-cycE1) (Homo sapiens, UniProt P24941); test: CDK2-cycE1 TR-FRET (LANCE) enzyme assay; assay type: biochemical; conditions: for FS CDK1/CDK2 / FS CDK4/CDK2: fold selectivity;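 as to improvement in potency against CDK2 (Ki) over Comparator C: fold lower CDK2 Ki than comparator c (Ki 0.032 µM)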
T2 construct: purchased ProQinase 0050-0055-1
Summary of the method: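 Kinase reaction buffer: 50 mM HEPES pH 7.5, 10 mM MgCl2, 2 mM TCEP, 0.05% BGG, 0.01% Brij 35, with 30 min compound–enzyme pre-incubation.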

[3] = molecular target: T3, Cyclin Dependent Kinase 4/Cyclin D3 (CDK4-cycD3) (Homo sapiens, UniProt P11802); test: CDK4-cycD3 TR-FRET (LANCE) enzyme assay; assay type: biochemical; conditions: for Ki: Table O, enzymatic assay; for FS CDK4/CDK2: fold selectivity, enzymatic Ki ratio
T3 construct: purchased Carna Biosciences 04-105
Summary of the method: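 Compound dose responses pre-incubated 30 min with enzyme mix in 50 mM HEPES pH 7.5, 10 mM MgCl2, 2 mM TCEP, 0.05% BGG, 0.01% Brij 35. Reaction quenched with EDTA (15 mM final); Eu-anti-phospho-4E-BP1 TR-FRET detection, acceptor/donor ratio. Ki derived by Morrison equation.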

[4] = tested on: OVISE (JCRB1043, CCNE1-amplified); test: OVISE EdU incorporation cell proliferation assay (CDK2-dependent); assay type: cell-based; conditions: for IC50: cellular assay, read-out: CDK2 OVISE IC50; for FS SKOV-3/OVISE / FS p-H3/OVISE: fold selectivity; for FS p-H3/OVISE: cellular p-H3 IC50 over OVISE IC50; for CDK2 OVISE IC50 fold change in potency versus Comparator D: Table R; for CDK2 OVISE IC50 fold change in potency versus Comparator E: Table S
Summary of the method: (§1)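 EdU incorporation (0.5 μM final, last 8 h) follows a 16 h compound exposure at 37 °C, 5% CO2 in RPMI plus 10% FBS, 0.5% DMSO. After fixation, imaging scores EdU-positive cells; a 4-parameter logistic fit of that fraction gives IC50.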

[5] = tested on: SKOV-3 (ATCC HTB-77); test: SKOV-3 EdU incorporation cell proliferation assay (CDK4/6-dependent); assay type: cell-based; conditions: for IC50: Homo sapiens, cellular assay, read-out: CDK4/6 SKOV-3 IC50; for selectivity for CDK2 over CDK4 compared with Comparator E: SKOV-3/OVISE fold-selectivity cellular assay data; for FS SKOV-3/OVISE: fold selectivity, cellular IC50 ratio
Summary of the method: as §1

[6] = tested on: HCT116 cells; test: p-H3 HCT-116 mitotic release cell proliferation assay (cellular CDK1); assay type: cell-based; conditions: Homo sapiens, HCT-116; Table O, cellular assay; read-out: CDK1 p-H3 IC50
Summary of the method: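 Phospho-Histone H3 (Ser10) in lysates was quantified by a two-antibody HTRF FRET read (≥2 h, room temperature). Before this, HCT116 cells held in mitosis by 16 h of 500 nM nocodazole were treated with compound for 4 h at 37 °C, 0.1% DMSO.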

[7] = Table O, enzymatic assay, read-out: CDK2 Ki
[8] = Table O, enzymatic CDK1 Ki over CDK2 Ki
[9] = Table O, enzymatic CDK4 Ki over CDK2 Ki
[10] = Table O, cellular SKOV-3 IC50 over OVISE IC50
[11] = Table R, enzymatic assay, read-out: CDK2 Ki
[12] = Table R, in brackets after CDK2 Ki
[13] = Table S, enzymatic assay, read-out: CDK2 Ki
[14] = Table S, in brackets after CDK2 Ki
[15] = read-out: CDK2 activity / potency (enzymatic assay)

T3 sequence (P11802 whole entry): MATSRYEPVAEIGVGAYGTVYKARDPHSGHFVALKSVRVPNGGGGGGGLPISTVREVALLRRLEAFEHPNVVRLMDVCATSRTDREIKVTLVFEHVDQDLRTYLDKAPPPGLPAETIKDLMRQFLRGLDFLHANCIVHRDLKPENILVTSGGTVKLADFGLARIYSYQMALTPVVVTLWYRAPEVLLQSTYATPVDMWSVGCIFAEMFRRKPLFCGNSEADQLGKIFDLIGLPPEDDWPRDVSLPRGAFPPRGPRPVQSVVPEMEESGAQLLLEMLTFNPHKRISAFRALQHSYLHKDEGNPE
T3 sequence (P30281 whole entry partner): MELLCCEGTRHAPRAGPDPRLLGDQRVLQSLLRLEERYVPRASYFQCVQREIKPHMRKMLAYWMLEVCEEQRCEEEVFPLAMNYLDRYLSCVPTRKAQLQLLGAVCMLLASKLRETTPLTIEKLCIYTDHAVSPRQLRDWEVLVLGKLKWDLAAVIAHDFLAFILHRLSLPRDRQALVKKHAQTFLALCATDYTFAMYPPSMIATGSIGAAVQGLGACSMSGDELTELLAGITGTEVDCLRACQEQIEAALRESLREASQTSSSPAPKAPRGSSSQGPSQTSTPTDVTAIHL
T1 sequence (P06493 whole entry): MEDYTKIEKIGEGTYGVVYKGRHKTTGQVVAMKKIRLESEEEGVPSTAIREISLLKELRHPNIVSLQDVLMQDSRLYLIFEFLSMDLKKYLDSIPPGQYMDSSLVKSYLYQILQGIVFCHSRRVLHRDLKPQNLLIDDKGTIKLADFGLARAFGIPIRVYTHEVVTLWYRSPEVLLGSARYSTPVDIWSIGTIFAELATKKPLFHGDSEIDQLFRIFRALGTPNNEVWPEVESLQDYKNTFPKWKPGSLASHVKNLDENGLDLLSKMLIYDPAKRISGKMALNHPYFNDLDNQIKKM
T1 sequence (P20248 whole entry partner): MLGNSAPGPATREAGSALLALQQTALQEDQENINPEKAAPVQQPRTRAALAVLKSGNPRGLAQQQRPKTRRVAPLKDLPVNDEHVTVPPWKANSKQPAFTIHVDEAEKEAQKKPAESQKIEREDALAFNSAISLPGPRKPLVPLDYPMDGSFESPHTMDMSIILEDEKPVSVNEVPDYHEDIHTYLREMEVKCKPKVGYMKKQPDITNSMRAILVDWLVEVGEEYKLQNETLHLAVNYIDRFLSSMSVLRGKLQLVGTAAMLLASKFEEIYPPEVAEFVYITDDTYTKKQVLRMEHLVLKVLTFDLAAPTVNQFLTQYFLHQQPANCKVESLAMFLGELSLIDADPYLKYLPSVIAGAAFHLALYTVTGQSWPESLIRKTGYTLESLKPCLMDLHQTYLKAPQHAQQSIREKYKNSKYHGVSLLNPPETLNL

| Ki [1] [nM] | Ki [2, 7] [nM] | FS CDK1/CDK2 [2, 8] | FS CDK4/CDK2 [2, 9] | Ki [3] [nM] | IC50 ([5]; SK-OV-3, Table O) [nM] | IC50 [6] [nM] | Compound | IC50 ([4]; Table O) [nM] | FS SKOV-3/OVISE [4, 10] | FS p-H3/OVISE ([4]; Table O) | FS CDK1/CDK2 increased over Comparator D, (+) sign ([1]; Table R) | FS CDK1/CDK2 ([1]; Table R) | FS CDK1/CDK2 ([1]; Table S) | Ki [2, 11] [nM] | CDK2 Ki fold change in potency versus Comparator D [2, 12] [fold] | Ki [2, 13] [nM] | CDK2 Ki fold change in potency versus Comparator E [2, 14] [fold] | FS CDK4/CDK2 increased over Comparator D, (+) sign ([3]; Table R) | FS CDK4/CDK2 ([3]; Table R) | FS CDK4/CDK2 ([3]; Table S) | also measured |
| --- | --- | --- | --- | --- | --- | --- | --- | --- | --- | --- | --- | --- | --- | --- | --- | --- | --- | --- | --- | --- | --- |
| 550 | 5 | 110 | 260 | 1300 | 18000 | 410 | Cc1nc(C#N)ccc1Nc1cc([C@H]2CC[C@@H](OC(=O)NC(C)C)C2)[nH]n1 [Example 2Z, (1R,3S)-3-(3-((6-cyano-2-methylpyridin-3-yl)amino)-1H-pyrazol-5-yl)cyclopentyl isopropylcarbamate] | 250 | 72 | 1.6 | – | – | – | – | – | – | – | – | – | – | increased fold-selectivity CDK1/CDK2 over Comparator C ([2]; Table Q, (+) sign after FS CDK1/CDK2): (+) (The (+) sign in Table Q signifies desirable increased fold-selectivity of the exemplary compounds over Comparator C); increased fold-selectivity CDK4/CDK2 over Comparator C ([2]; Table Q, (+) sign after FS CDK4/CDK2): (+) (The (+) sign in Table Q signifies desirable increased fold-selectivity of the exemplary compounds over Comparator C); Ki ([2]; Table Q, enzymatic assay, read-out: CDK2 Ki): 5 nM; FS CDK1/CDK2 ([2]; Table Q, enzymatic): 110; FS CDK4/CDK2 ([2]; Table Q, enzymatic): 260; improvement in potency against CDK2 (Ki) over Comparator C ([2]; Table Q, in brackets after CDK2 Ki, Comparator C 0.032 μM): 6.4 fold; increased fold-selectivity SKOV-3/OVISE over Comparator C ([4]; Table Q, (+) sign after FS SKOV-3/OVISE): (+) (The (+) sign in Table Q signifies desirable increased fold-selectivity of the exemplary compounds over Comparator C); FS SKOV-3/OVISE ([4]; Table Q, cellular): 72; improvement in CDK2 OVISE cell potency over Comparator C ([4]; Table Q, in brackets after OVISE IC50, Comparator C 5.5 μM): 22 fold; IC50 ([5]; SK-OV-3, Table Q): 18000 nM |
| 47 | 1.8 | 26 | 61 | 110 | 2300 | 73 | O=C(NC12CC(C1)C2)O[C@@H]1CC[C@H](c2cc(Nc3cccnn3)n[nH]2)C1 [Example 3, (1R,3S)-3-(3-(pyridazin-3-ylamino)-1H-pyrazol-5-yl)cyclopentyl bicyclo[1.1.1]pentan-1-ylcarbamate] | 150 | 15 | 0.49 | – | – | – | – | – | – | – | – | – | – | – |
| 72 | 2.5 | 29 | 60 | 150 | 2700 | 160 | CC1(NC(=O)O[C@@H]2CC[C@H](c3cc(Nc4cccnn4)n[nH]3)C2)CC1 [Example 3A, (1R,3S)-3-(3-(pyridazin-3-ylamino)-1H-pyrazol-5-yl)cyclopentyl (1-methylcyclopropyl)carbamate] | 130 | 21 | 1.2 | – | – | – | – | – | – | – | – | – | – | – |
| 280 | 10 | 28 | 72 | 720 | 13000 | 1400 | CN1CCC(NC(=O)O[C@@H]2CC[C@H](c3cc(Nc4cccnn4)n[nH]3)C2)CC1 [Example 3E, (1R,3S)-3-(3-(pyridazin-3-ylamino)-1H-pyrazol-5-yl)cyclopentyl (1-methylpiperidin-4-yl)carbamate] | 420 | 31 | 3.3 | – | – | – | – | – | – | – | – | – | – | – |
| 110 | 4 | 27 | 6 | 24 | 1300 | 350 | CC1(NC(=O)O[C@@H]2CC[C@H](c3cc(Nc4cccnn4)n[nH]3)C2)CNC1 [Example 3F, (1R,3S)-3-(3-(pyridazin-3-ylamino)-1H-pyrazol-5-yl)cyclopentyl (3-methylazetidin-3-yl)carbamate] | 320 | 4.1 | 1.1 | – | – | – | – | – | – | – | – | – | – | – |

| Compound | Ki [1] [nM] | Ki [2, 7] [nM] | FS CDK1/CDK2 [2, 8] | FS CDK4/CDK2 [2, 9] | Ki [3] [nM] | IC50 ([5]; SK-OV-3, Table O) [nM] | IC50 [6] [nM] | IC50 ([4]; Table O) [nM] | FS SKOV-3/OVISE [4, 10] | FS p-H3/OVISE ([4]; Table O) | FS CDK1/CDK2 increased over Comparator D, (+) sign ([1]; Table R) | FS CDK1/CDK2 ([1]; Table R) | FS CDK1/CDK2 ([1]; Table S) | Ki [2, 11] [nM] | CDK2 Ki fold change in potency versus Comparator D [2, 12] [fold] | Ki [2, 13] [nM] | CDK2 Ki fold change in potency versus Comparator E [2, 14] [fold] | FS CDK4/CDK2 increased over Comparator D, (+) sign ([3]; Table R) | FS CDK4/CDK2 ([3]; Table R) | FS CDK4/CDK2 ([3]; Table S) | also measured |
| --- | --- | --- | --- | --- | --- | --- | --- | --- | --- | --- | --- | --- | --- | --- | --- | --- | --- | --- | --- | --- | --- |
| Cc1ncccc1Nc1cc([C@H]2CC[C@@H](OC(=O)NC(C)(C)C)C2)[nH]n1 [Example 4, (1R,3S)-3-(3-((2-methylpyridin-3-yl)amino)-1H-pyrazol-5-yl)cyclopentyl tert-butylcarbamate] | 25 | 0.22 | 110 | 160 | 34 | 920 | 30 | 20 | 46 | 1.5 | (+) | 110 | 110 | 0.22 | 12.3 | 0.22 | 2.4 | (+) | 160 | 160 | FS CDK1/CDK2 increased over Comparator E, (+) sign ([1]; Table S): (+); Ki [2, 15]: ≤ 1 nM; FS CDK4/CDK2 increased over Comparator E, (+) sign ([3]; Table S): (+); CDK2 cell potency compared with Comparator E ([4]; CDK2 OVISE cellular assay data): more potent CDK2 cell inhibitors compared to Comparator E; CDK2 OVISE IC50 fold change in potency versus Comparator D ([4]; in brackets after OVISE IC50): 190 fold; CDK2 OVISE IC50 fold change in potency versus Comparator E ([4]; in brackets after OVISE IC50): 8.5 fold; selectivity for CDK2 over CDK4 compared with Comparator E [5]: increase in selectivity for CDK2 over CDK4; FS SKOV-3/OVISE increased over Comparator D, (+) sign ([5]; Table R): (+); FS SKOV-3/OVISE ([5]; Table R): 46; FS SKOV-3/OVISE increased over Comparator E, (+) sign ([5]; Table S): (+); FS SKOV-3/OVISE ([5]; Table S): 46 |
| Cc1ccncc1Nc1cc([C@H]2CC[C@@H](OC(=O)NC(C)(C)C)C2)[nH]n1 [Example 4A, (1R,3S)-3-(3-((4-methylpyridin-3-yl)amino)-1H-pyrazol-5-yl)cyclopentyl tert-butylcarbamate] | 210 | 2.6 | 78 | 170 | 410 | 9900 | 93 | 180 | 71 | 0.72 | (+) | 78 | 78 | 2.6 | 1 | 2.6 | 0.2 | (+) | 170 | 170 | FS CDK1/CDK2 increased over Comparator E, (+) sign ([1]; Table S): (+); FS CDK4/CDK2 increased over Comparator E, (+) sign ([3]; Table S): (+); CDK2 OVISE IC50 fold change in potency versus Comparator D ([4]; in brackets after OVISE IC50): 21 fold; CDK2 OVISE IC50 fold change in potency versus Comparator E ([4]; in brackets after OVISE IC50): 0.9 fold; selectivity for CDK2 over CDK4 compared with Comparator E [5]: increase in selectivity for CDK2 over CDK4; FS SKOV-3/OVISE increased over Comparator D, (+) sign ([5]; Table R): (+); FS SKOV-3/OVISE ([5]; Table R): 71; FS SKOV-3/OVISE increased over Comparator E, (+) sign ([5]; Table S): (+); FS SKOV-3/OVISE ([5]; Table S): 71 |
| Cc1ccc(Nc2cc([C@H]3CC[C@@H](OC(=O)NC(C)(C)C)C3)[nH]n2)cn1 [Example 4B, (1R,3S)-3-(3-((6-methylpyridin-3-yl)amino)-1H-pyrazol-5-yl)cyclopentyl tert-butylcarbamate] | 20 | 0.52 | 38 | 37 | 19 | 390 | 23 | 33 | 12 | 0.70 | (+) | 38 | 38 | 0.52 | 5.2 | 0.52 | 1 | (+) | 37 | 37 | Ki [2, 15]: ≤ 1 nM; CDK2 OVISE IC50 fold change in potency versus Comparator D ([4]; in brackets after OVISE IC50): 115 fold; CDK2 OVISE IC50 fold change in potency versus Comparator E ([4]; in brackets after OVISE IC50): 5.2 fold; FS SKOV-3/OVISE increased over Comparator D, (+) sign ([5]; Table R): (+); FS SKOV-3/OVISE ([5]; Table R): 12; FS SKOV-3/OVISE ([5]; Table S): 12 |
